According to ChEMBL document CHEMBL3632488, “Discovery of potent and selective cytotoxic activity of new quinazoline-ureas against TMZ-resistant glioblastoma multiforme (GBM)” (Eur J Med Chem, 2015):

What was measured:
[1] = Antiproliferative activity against human GBM1 cells assessed as reduction in cell viability at 10 uM incubated for 72 hrs by WST-1 method; format: functional; conditions: GBM1, 72 h
[2] = Antiproliferative activity against human GBM2 cells assessed as reduction in cell viability at 10 uM incubated for 72 hrs by WST-1 method; format: functional; conditions: GBM2, 72 h
[3] = Antiproliferative activity against human GBM1 cells assessed as reduction in cell viability incubated for 72 hrs by WST-1 method; format: functional, cell-based; conditions: GBM1, 72 h
[4] = Antiproliferative activity against human GBM2 cells assessed as reduction in cell viability incubated for 72 hrs by WST-1 method; format: functional, cell-based; conditions: GBM2, 72 h
[5] = Cytotoxicity against normal human astrocytes assessed as cell viability incubated for 72 hrs by WST-1 method; format: cell-based; conditions: Astrocyte
[6] = Selectivity index, ratio of IC50 for normal human astrocytes to IC50 for human GBM1 cells
[7] = Selectivity index, ratio of IC50 for normal human astrocytes to IC50 for human GBM2 cells
[8] = Antiproliferative activity against human GBM3 cells assessed as reduction in cell viability at 10 uM incubated for 72 hrs by WST-1 method; format: functional; conditions: GBM3, 72 h
[9] = Antiproliferative activity against human GBM3 cells assessed as reduction in cell viability incubated for 72 hrs by WST-1 method; format: functional, cell-based; conditions: GBM3, 72 h
[10] = Selectivity index, ratio of IC50 for normal human astrocytes to IC50 for human GBM3 cells

| SMILES | inhibition at 10 µM [1] | inhibition at 10 µM [2] | IC50 [3] | IC50 [4] | IC50 [5] | Ratio IC50 [6] | Ratio IC50 [7] | inhibition at 10 µM [8] | IC50 [9] | Ratio IC50 [10] |
| --- | --- | --- | --- | --- | --- | --- | --- | --- | --- | --- |
| O=C(Nc1cccc(Cl)c1)Nc1cc2ncncc2cc1OCc1cccc(Cl)c1 | 85% | 98.2% | 3.3 µM | 3.5 µM | > 10 µM | >2.9 | >2.9 | 100% | 3.5 µM | >2.9 |
| O=C(Nc1ccccc1F)Nc1cc2ncncc2cc1OCc1cccc(F)c1 | 63% | 74.5% | 8 µM | 6.4 µM | > 10 µM | >1.3 | >1.3 | 61.4% | 8.1 µM | >1.3 |
| O=C(Nc1ccc(C(F)(F)F)cc1)Nc1cc2ncncc2cc1OCc1ccccc1 | 92.2% | 95.2% | 5.7 µM | 8.6 µM | 9.2 µM | 1.5 | 1.5 | 99.1% | 3.7 µM | 1.5 |
| CC[C@@]1(O)C(=O)OCc2c1cc1n(c2=O)Cc2cc3c(CN(C)C)c(O)ccc3nc2-1 [TOPOTECAN] | 88.7% | 97.8% | 0.46 µM | 0.13 µM | 0.16 µM | 0.5 | 0.5 | 88.7% | 0.38 µM | 0.5 |
| O=C(Nc1ccc(C(F)(F)F)cc1)Nc1cc2ncncc2cc1OCc1cccc(F)c1 | 76.2% | 99.5% | 3.8 µM | 3.2 µM | 8.9 µM | 2 | 2 | 95.4% | 6.3 µM | 2 |
| O=C(Nc1cccc(Cl)c1)Nc1cc2ncncc2cc1OCc1ccccc1 | 79.1% | 97.3% | 5.7 µM | 4.1 µM | 7.4 µM | 1.4 | 1.4 | 74.8% | 6.4 µM | 1.4 |
| O=C(Nc1cccc(F)c1)Nc1cc2ncncc2cc1OCc1ccccc1Cl | 97.7% | 102% | 4 µM | 3.2 µM | 9.4 µM | 2.9 | 2.9 | 102% | 2.4 µM | 2.9 |
| O=C(Nc1ccc(C(F)(F)F)cc1)Nc1cc2ncncc2cc1OCc1cccc(Cl)c1 | 75.7% | 94.6% | 3.4 µM | 4.7 µM | 8.8 µM | 2 | 2 | 90.1% | 5.1 µM | 2 |
| COc1cc([C@@H]2c3cc4c(cc3[C@@H](O[C@@H]3O[C@@H]5CO[C@@H](C)O[C@H]5[C@H](O)[C@H]3O)[C@H]3COC(=O)[C@H]23)OCO4)cc(OC)c1O [ETOPOSIDE] | 53.5% | 88.2% | > 10 µM | 1.1 µM | > 10 µM |  |  | 22.1% | > 10 µM |  |
| CCc1c2c(nc3ccc(OC(=O)N4CCC(N5CCCCC5)CC4)cc13)-c1cc3c(c(=O)n1C2)COC(=O)[C@]3(O)CC | 34.1% | 91.8% | > 10 µM | 2.4 µM | > 10 µM |  |  | 54.1% | 5 µM |  |
| O=C(Nc1ccc(Cl)c(Cl)c1)Nc1cc2ncncc2cc1OCc1ccccc1F | 84.4% | 87.6% | 4.1 µM | 6 µM | 3.9 µM |  |  | 50.2% | > 10 µM |  |
